US8247211B2, “Glycopeptide antibiotics” (American Cyanamid Company, priority 2001, dated 2012)
Converted amounts (≈) assume the structure as drawn.

Columns and labels:
Test in all cases: In vitro antibacterial evaluation: minimum inhibitory concentration (MIC), broth dilution method
Format in all cases: cell-based
Escherichia coli = system: Escherichia coli
How it was run: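 Broth dilution per NCCLS M7-A2 in Muller-Hinton II […], inoculum 5×10^5 CFU/mL, antibiotic tested over 64-0.06 μg/mL. MIC is taken as the lowest concentration that inhibits growth. Panel includes recent clinical isolates resistant to methicillin, penicillin and/or vancomycin.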

Enterococcus sp. = system: Enterococcus sp.
How it was run: (§1)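 Values are minimum inhibitory concentrations, meaning the smallest antibiotic concentration that stops growth of the organism. They come from broth dilution in Muller-Hinton II […] per NCCLS guidance (M7-A2), using 5×10^5 CFU/mL and concentrations from 64 to 0.06 μg/mL.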

Streptococcus sp. = system: Streptococcus sp.
How it was run: as §1

Staphylococcus sp. = settings: broth dilution, 18 hours at 35° C.
How it was run: as §1

[1] = broth dilution, inoculum 5×10^5 CFU/mL, 18 hours at 35° C.

MIC Escherichia coli (ATCC 25922) (Escherichia coli; strain ATCC 25922): 32 µg/mL (≈ 21.8 µM)
MIC Escherichia coli (GC 4559) (Escherichia coli; strain GC 4559): 32 µg/mL (≈ 21.8 µM)
MIC Escherichi coli (GC 4560) (Escherichia coli; strain GC 4560): 8 µg/mL (≈ 5.46 µM)
MIC Enterococcus avium (GC 4558) (Enterococcus sp.; [1]): 8 µg/mL (≈ 5.46 µM)
MIC Enterococcus faecalis (ATCC 29212) (Enterococcus sp.; [1]): 16 µg/mL (≈ 10.9 µM)
MIC Enterococcus faecalis (GC 2242) (Enterococcus sp.; [1]): 16 µg/mL (≈ 10.9 µM)
MIC Enterococcus faecalis (GC 2691) (Enterococcus sp.; [1]): 16 µg/mL (≈ 10.9 µM)
MIC Enterococcus faecalis (GC 3059) (Enterococcus sp.; [1]): 16 µg/mL (≈ 10.9 µM)
MIC Enterococcus faecalis (GC 4552) (Enterococcus sp.; [1]): 16 µg/mL (≈ 10.9 µM)
MIC Enterococcus faecalis (GC 4553) (Enterococcus sp.; [1]): 16 µg/mL (≈ 10.9 µM)
MIC Enterococcus faecalis (GC 4554) (Enterococcus sp.; [1]): 16 µg/mL (≈ 10.9 µM)
MIC Enterococcus faecalis (GC 6189) (Enterococcus sp.; [1]): 16 µg/mL (≈ 10.9 µM)
MIC Enterococcus faecium (GC 2243) (Enterococcus sp.; [1]): 8 µg/mL (≈ 5.46 µM)
MIC Enterococcus faecium (GC 4556) (Enterococcus sp.; [1]): 16 µg/mL (≈ 10.9 µM)
MIC Enterococcus faecium (GC 4557) (Enterococcus sp.; [1]): 4 µg/mL (≈ 2.73 µM)
MIC Enterococcus faecalis (ATCC 29212) (Enterococcus sp.; strain ATCC 29212): 16 µg/mL (≈ 10.9 µM)
MIC Enterococcus faecalis (GC 2242) (Enterococcus sp.; strain GC 2242): 16 µg/mL (≈ 10.9 µM)
MIC Enterococcus faecium (GC 2243) (Enterococcus sp.; strain GC 2243): 8 µg/mL (≈ 5.46 µM)
MIC Enterococcus faecalis (GC 2691) (Enterococcus sp.; strain GC 2691): 16 µg/mL (≈ 10.9 µM)
MIC Enterococcus faecalis (GC 3059) (Enterococcus sp.; strain GC 3059): 16 µg/mL (≈ 10.9 µM)
MIC Enterococcus faecalis (GC 4552) (Enterococcus sp.; strain GC 4552): 16 µg/mL (≈ 10.9 µM)
MIC Enterococcus faecalis (GC 4553) (Enterococcus sp.; strain GC 4553): 16 µg/mL (≈ 10.9 µM)
MIC Enterococcus faecalis (GC 4554) (Enterococcus sp.; strain GC 4554): 16 µg/mL (≈ 10.9 µM)
MIC Enterococcus faecium (GC 4556) (Enterococcus sp.; strain GC 4556): 16 µg/mL (≈ 10.9 µM)
MIC Enterococcus faecium (GC 4557) (Enterococcus sp.; strain GC 4557): 4 µg/mL (≈ 2.73 µM)
MIC Enterococcus avium (GC 4558) (Enterococcus sp.; strain GC 4558): 8 µg/mL (≈ 5.46 µM)
MIC Enterococcus faecalis (GC 6189) (Enterococcus sp.; strain GC 6189): 16 µg/mL (≈ 10.9 µM)
MIC Streptococcus agalactiae (GC 4564) (Streptococcus sp.; [1]): 1 µg/mL (≈ 0.682 µM)
MIC Streptococcus pneumoniae (ATCC 6301) (Streptococcus sp.; [1]): 1 µg/mL (≈ 0.682 µM)
MIC Streptococcus pneumoniae (GC 1894) (Streptococcus sp.; [1]): 0.25 µg/mL (≈ 0.171 µM)
MIC Streptococcus pneumoniae (GC 4565) (Streptococcus sp.; [1]): 1 µg/mL (≈ 0.682 µM)
MIC Streptococcus pyogenes (GC 4563) (Streptococcus sp.; [1]): 0.5 µg/mL (≈ 0.341 µM)
MIC Streptococcus pneumoniae (ATCC 6301) (Streptococcus sp.; strain ATCC 6301): 1 µg/mL (≈ 0.682 µM)
MIC Streptococcus pneumoniae (GC 1894) (Streptococcus sp.; strain GC 1894): 0.25 µg/mL (≈ 0.171 µM)
MIC Streptococcus pyogenes (GC 4563) (Streptococcus sp.; strain GC 4563): 0.5 µg/mL (≈ 0.341 µM)
MIC Streptococcus agalactiae (GC 4564) (Streptococcus sp.; strain GC 4564): 1 µg/mL (≈ 0.682 µM)
MIC Streptococcus pneumoniae (GC 4565) (Streptococcus sp.; strain GC 4565): 1 µg/mL (≈ 0.682 µM)
MIC Coagulase Negative Staphylococcus (GC 4547) (Staphylococcus sp.; 5×10^5 CFU/mL): 8 µg/mL (≈ 5.46 µM)
MIC Coagulase Negative Staphylococcus (GC 4548) (Staphylococcus sp.; 5×10^5 CFU/mL): 4 µg/mL (≈ 2.73 µM)
MIC Coagulase Negative Staphylococcus (GC 4549) (Staphylococcus sp.; 5×10^5 CFU/mL): 4 µg/mL (≈ 2.73 µM)
MIC Coagulase Negative Staphylococcus (GC 4551) (Staphylococcus sp.; 5×10^5 CFU/mL): 8 µg/mL (≈ 5.46 µM)
MIC Coagulase Negative Staphylococcus (GC 6257) (Staphylococcus sp.; 5×10^5 CFU/mL): 4 µg/mL (≈ 2.73 µM)
MIC Staphylococcus aureus (ATCC 29213) (Staphylococcus sp.; 5×10^5 CFU/mL): 8 µg/mL (≈ 5.46 µM)
MIC Staphylococcus aureus (GC 1131) (Staphylococcus sp.; 5×10^5 CFU/mL): 8 µg/mL (≈ 5.46 µM)
MIC Staphylococcus aureus (GC 3051) (Staphylococcus sp.; 5×10^5 CFU/mL): 8 µg/mL (≈ 5.46 µM)
MIC Staphylococcus aureus (GC 3053) (Staphylococcus sp.; 5×10^5 CFU/mL): 8 µg/mL (≈ 5.46 µM)
MIC Staphylococcus aureus (GC 4541) (Staphylococcus sp.; 5×10^5 CFU/mL): 8 µg/mL (≈ 5.46 µM)
MIC Staphylococcus aureus (GC 4542) (Staphylococcus sp.; 5×10^5 CFU/mL): 16 µg/mL (≈ 10.9 µM)
MIC Staphylococcus aureus (GC 4544) (Staphylococcus sp.; 5×10^5 CFU/mL): 8 µg/mL (≈ 5.46 µM)
MIC Staphylococcus aureus (GC 4545) (Staphylococcus sp.; 5×10^5 CFU/mL): 8 µg/mL (≈ 5.46 µM)
MIC Staphylococcus aureus-SMITH (GC 4543) (Staphylococcus sp.; 5×10^5 CFU/mL): 8 µg/mL (≈ 5.46 µM)
MIC Staphylococcus aureus (ATCC 29213) (Staphylococcus sp.; strain ATCC 29213): 8 µg/mL (≈ 5.46 µM)
MIC Staphylococcus aureus (GC 1131) (Staphylococcus sp.; strain GC 1131): 8 µg/mL (≈ 5.46 µM)
MIC Staphylococcus aureus (GC 3051) (Staphylococcus sp.; strain GC 3051): 8 µg/mL (≈ 5.46 µM)
MIC Staphylococcus aureus (GC 3053) (Staphylococcus sp.; strain GC 3053): 8 µg/mL (≈ 5.46 µM)
MIC Staphylococcus aureus (GC 4541) (Staphylococcus sp.; strain GC 4541): 8 µg/mL (≈ 5.46 µM)
MIC Staphylococcus aureus (GC 4542) (Staphylococcus sp.; strain GC 4542): 16 µg/mL (≈ 10.9 µM)
MIC Staphylococcus aureus-SMITH (GC 4543) (Staphylococcus sp.; strain GC 4543): 8 µg/mL (≈ 5.46 µM)
MIC Staphylococcus aureus (GC 4544) (Staphylococcus sp.; strain GC 4544): 8 µg/mL (≈ 5.46 µM)
MIC Staphylococcus aureus (GC 4545) (Staphylococcus sp.; strain GC 4545): 8 µg/mL (≈ 5.46 µM)
MIC Coagulase Negative Staphylococcus (GC 4547) (Staphylococcus sp.; strain GC 4547): 8 µg/mL (≈ 5.46 µM)
MIC Coagulase Negative Staphylococcus (GC 4548) (Staphylococcus sp.; strain GC 4548): 4 µg/mL (≈ 2.73 µM)
MIC Coagulase Negative Staphylococcus (GC 4549) (Staphylococcus sp.; strain GC 4549): 4 µg/mL (≈ 2.73 µM)
MIC Coagulase Negative Staphylococcus (GC 4551) (Staphylococcus sp.; strain GC 4551): 8 µg/mL (≈ 5.46 µM)
MIC Coagulase Negative Staphylococcus (GC 6257) (Staphylococcus sp.; strain GC 6257): 4 µg/mL (≈ 2.73 µM)
SMILES: CC(c1ccccc1)C1NC(=O)CNC(=O)C(CO)NC(=O)C(C(O)C2CNC(=N)N2C2OC(CO)C(O)C(O)C2O)NC(=O)C(C(O)C2CNC(=N)N2)NC(=O)C(Cc2ccc(OC3OC(CO)C(OC4OC(CO)C(O)C5OC(c6ccc(-c7ccsc7)cc6)OC45)C(O)C3O)cc2)NC1=O (stereo not drawn) [Example 164a, Cyclo[glycyl-β-methylphenylalanyl-O-[4-O-[2,3-O-[4-(3-thienyl)benzylidene]hexopyranosyl]-hexopyranosyl]tyrosyl-3-(2-iminoimidazolidin-4-yl)seryl-3-(3-hexopyranosyl-2-iminoimidazolidin-4-yl)serylseryl]]
MIC Staphylococcus haemolyticus (GC 4546) (Staphylococcus sp.; 5×10^5 CFU/mL): 4 µg/mL (≈ 2.73 µM)
MIC Staphylococcus haemolyticus (GC 4546) (Staphylococcus sp.; strain GC 4546): 4 µg/mL (≈ 2.73 µM)
